Measured values taken from ChEMBL document CHEMBL1142783, “Hydrophobicity in the design of P2/P2' tetrahydropyrimidinone HIV protease inhibitors” (Bioorg Med Chem Lett, 2005).

Biological target: Human immunodeficiency virus type 1 protease (Human immunodeficiency virus 1) (UniProt Q72874)
Test: Concentration which reduced the concentration of HIV viral RNA by 90% from the level measured in an untreated infected culture
Assay type: functional

Row | SMILES | Log 1/IC90
1 | O=C1N(c2ccc(CO)cc2)[C@H](CCc2ccccc2)[C@@H](O)[C@@H](Cc2ccccc2)N1c1ccc(CO)cc1 | 5.44
2 | NC(=O)c1cc(N2C(=O)N(c3ccc(F)c(C(N)=O)c3)[C@H](Cc3ccccc3)[C@H](O)[C@H]2CCc2ccccc2)ccc1F | 6.31
3 | Nc1ccc(N2C(=O)N(c3ccc(N)c(F)c3)[C@H](Cc3ccccc3)[C@H](O)[C@H]2CCc2ccccc2)cc1F | 6.27
4 | N=C(NO)c1cccc(N2C(=O)N(c3cccc(/C(N)=C\O)c3)[C@H](Cc3ccccc3)[C@H](O)[C@H]2CCc2ccccc2)c1 | 7.31
5 | Nc1cc(N2C(=O)N(c3ccc(F)c(N)c3)[C@H](Cc3ccccc3)[C@H](O)[C@H]2CCc2ccccc2)ccc1F | 7.44
6 | O=C1N(c2ccccc2)[C@H](CCc2ccccc2)[C@@H](O)[C@@H](Cc2ccccc2)N1c1ccccc1 | 5.55

The next lines start with the values.

Row | Log 1/IC90 | SMILES
7 | 6.96 | O=C1N(c2cccc(CO)c2)[C@H](CCc2ccccc2)[C@@H](O)[C@@H](Cc2ccccc2)N1c1cccc(CO)c1
8 | 7.46 | NC(=O)c1cccc(N2C(=O)N(c3cccc(C(N)=O)c3)[C@H](Cc3ccccc3)[C@H](O)[C@H]2CCc2ccccc2)c1
9 | 6.94 | O=C1N(c2cccc(O)c2)[C@H](CCc2ccccc2)[C@@H](O)[C@@H](Cc2ccccc2)N1c1cccc(O)c1
10 | 5.8 | N#Cc1cccc(N2C(=O)N(c3cccc(C#N)c3)[C@H](Cc3ccccc3)[C@H](O)[C@H]2CCc2ccccc2)c1
11 | 6.44 | Nc1cccc(N2C(=O)N(c3cccc(N)c3)[C@H](Cc3ccccc3)[C@H](O)[C@H]2CCc2ccccc2)c1
12 | 6.48 | CNc1cccc(N2C(=O)N(c3cccc(NC)c3)[C@H](Cc3ccccc3)[C@H](O)[C@H]2CCc2ccccc2)c1
